In patent publication US11541059B2, “Heterocyclic compounds and uses thereof” (Infinity Pharmaceuticals, Inc., priority 2014, dated 2023):
Where two headings read alike, the source gives them in different places.

Columns and labels:
PI3K-δ in RAJI cells = PI3K-δ in RAJI cells (Homo sapiens (Human), UniProt O00329); assay: RAJI p110 δ assay (phospho-AKT, anti-human IgM stimulated); type: cell-based
Protocol: Reduction of phospho-AKT is indicative of compounds that may inhibit B-cell proliferation and function in certain diseases.
Certain compounds provided herein were tested in RAJI cell model using procedures as described above.

[1] = target: PI3K-γ in RAW264.7 macrophages (Mus musculus (Mouse), UniProt Q9JHG7); assay: Raw264.7 p110 γ assay (phospho-AKT, C5a stimulated); type: cell-based
Description: Briefly, serum-starved RAW264.7 cells are stimulated with a known GPCR agonist C5a. […] Cells can be treated with test compounds prior to, simultaneously with, or subsequent to the stimulation by C5a. RAW 264.7 cells respond to the complement component fragment C5a through activation of the C5a receptor, and the C5a receptor activates macrophages and induces cell migration.

PI3K γ = PI3K γ (Homo sapiens (Human), UniProt P48736); assay: PI3-Kinase Promega ADP-Glo Max assay; type: biochemical
Protocol: (§4) Promega ADP-Glo Max assay kit (Cat. No. V7002) was utilized to determine IC50 values for α, β, δ and γ isoforms of human Class I PI3 kinases (Millipore). […] Reactions were incubated at room temperature for 2 hours followed by addition of 25 uL of stop solution. After a 40-minute incubation at room temperature, 50 uL of Promega detection mix was added followed by incubation for 1 hour at room temperature. Plates were then read on Envision plate reader in luminescence mode. Data was converted to % inhibition using the following equation below:
(§5) [formula] where S is the sample luminescence, Pos is a positive control without added PI3K, Neg is the negative control without added compound. Data was then plotted as % inhibition vs compound concentration.

PI3K δ = PI3K δ (Homo sapiens (Human), UniProt O00329); assay: PI3-Kinase Promega ADP-Glo Max assay; type: biochemical
Protocol: as §4, §5

PI3K α = PI3K α (Homo sapiens (Human), UniProt P42336); assay: PI3-Kinase Promega ADP-Glo Max assay; type: biochemical
Protocol: as §4, §5

PI3K β = PI3K β (Homo sapiens (Human), UniProt P42338); assay: PI3-Kinase Promega ADP-Glo Max assay; type: biochemical
Protocol: as §4, §5

[2] = Pharmacokinetics of Compound 88, oral; type: in vivo, mouse; conditions: female C57 mice
Protocol: A similar study was carried out using Compound 88. […] Below is a table that details the results for Compound 88: […]

human T cells = assay: Concanavalin A-induced model for activation of human T cells (IFN-γ); type: cell-based; conditions: isoform selective concentrations
[3] = system: CXCL12 induced p-AKT in M1 polarized macrophage; assay: CXCL12-induced p-AKT induction assay, M1 polarized macrophages; type: cell-based, mouse
Description: (§1) Long bones from young C57B6 mice were harvested and bone marrow was extruded by gentle lavage of the bone marrow cavities with a 28 guage needle. Red blood cells were removed using red blood cell lysis buffer (Sigma). Bone marrow cells were differentiated to macrophages using MCSF for 6 days (RPMI and 20% FCS) with one media change (with removal of all non-adherent cells) at day 3. Macrophages were polarized into M0 (MCSF), M1 (MCSF, IFNγ, and LPS for 1 day), or M2 (MCSF, IL4 for 2 days).
(§2) CXCL12-induced p-AKT induction assay: Polarized macrophages were lifted with Acutase, and plated at 0.5M cells per well (0.5 ml) in a deep well (2 ml) non adherant plate in polarization media for 1 hour. […] CXCL12 was added, and the cells were mixed on a plate shaker for 2 minutes. 1 ml of 37 degree FACS Lyse/fix buffer (BD bioscience) was added and the plate was mixed for 1 minute. The plates were spun and decanted and frozen at −80° C. Phospho AKT staining with anti Phospho AKT 473 PERCP labeled (Cell Signaling Technologies) was performed and measured by flow cytometry. Total cell MFI was used to calculate the effect of tested compound on CXCL12 induction of phospho AKT.

[4] = system: CXCL12 induced p-AKT in M2 polarized macrophage; assay: CXCL12-induced p-AKT induction assay, M2 polarized macrophages; type: cell-based, mouse
Description: as §1, §2

[5] = Oral PK in the rat LPS studies (free plasma concentration); type: in vivo; conditions: p.o. 0.2 mg/kg
Description: (§3) This study also includes assessment of the exposure to the compounds in plasma and lung tissues.

[6] = system: LPS induced neutrophil influx in BALF; assay: LPS-induced neutrophilia, oral administration; type: in vivo; conditions: rat, p.o., 4 hours post-LPS challenge
Description: as §3

LLC tumor = LLC tumor brei model with or without cyclophosphamide; type: in vivo, mouse; conditions: BB 15 mg/kg QD PO; cyclophosphamide 50 mg/kg EOD IP, FIG. 48
Protocol: In this experiment, treatment began when tumors reached approx. 150 mm^3—around day 12. Caliper and xenogen images were monitored. Treatment groups n=13-15/group. […] Samples for FACs analysis were collected on day 23 post implant. Using FACS, cells were assayed for the level of CD11b and Gr-1.

PI3K γ, sequence (P48736 whole entry): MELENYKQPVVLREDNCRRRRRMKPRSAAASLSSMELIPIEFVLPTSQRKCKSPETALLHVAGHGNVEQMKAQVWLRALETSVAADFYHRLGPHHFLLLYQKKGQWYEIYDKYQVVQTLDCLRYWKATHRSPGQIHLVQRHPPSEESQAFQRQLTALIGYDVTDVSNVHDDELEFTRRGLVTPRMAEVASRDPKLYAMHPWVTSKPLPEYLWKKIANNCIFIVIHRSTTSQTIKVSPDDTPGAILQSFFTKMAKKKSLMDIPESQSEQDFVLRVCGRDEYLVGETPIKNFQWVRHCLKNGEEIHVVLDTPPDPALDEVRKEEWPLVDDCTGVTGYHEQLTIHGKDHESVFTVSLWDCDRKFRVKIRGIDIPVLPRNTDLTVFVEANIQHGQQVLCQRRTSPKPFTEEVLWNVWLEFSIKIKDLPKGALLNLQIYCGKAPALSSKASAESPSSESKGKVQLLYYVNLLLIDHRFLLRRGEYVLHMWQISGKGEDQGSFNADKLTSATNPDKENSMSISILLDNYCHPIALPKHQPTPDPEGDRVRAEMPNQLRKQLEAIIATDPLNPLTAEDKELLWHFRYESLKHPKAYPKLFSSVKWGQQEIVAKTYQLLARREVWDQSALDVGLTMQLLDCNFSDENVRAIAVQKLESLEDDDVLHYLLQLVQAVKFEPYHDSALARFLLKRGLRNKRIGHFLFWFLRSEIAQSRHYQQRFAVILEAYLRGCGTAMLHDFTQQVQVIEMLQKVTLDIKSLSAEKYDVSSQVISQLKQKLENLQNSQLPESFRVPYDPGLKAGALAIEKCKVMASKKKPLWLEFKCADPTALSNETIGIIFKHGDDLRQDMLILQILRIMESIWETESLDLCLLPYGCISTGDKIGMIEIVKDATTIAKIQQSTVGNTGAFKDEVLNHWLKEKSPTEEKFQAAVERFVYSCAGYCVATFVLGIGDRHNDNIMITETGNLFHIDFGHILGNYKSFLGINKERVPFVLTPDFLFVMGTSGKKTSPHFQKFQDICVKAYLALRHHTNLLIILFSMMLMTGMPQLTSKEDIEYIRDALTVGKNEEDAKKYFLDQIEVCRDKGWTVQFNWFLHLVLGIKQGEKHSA
PI3K-γ in RAW264.7 macrophages, sequence (Q9JHG7 whole entry): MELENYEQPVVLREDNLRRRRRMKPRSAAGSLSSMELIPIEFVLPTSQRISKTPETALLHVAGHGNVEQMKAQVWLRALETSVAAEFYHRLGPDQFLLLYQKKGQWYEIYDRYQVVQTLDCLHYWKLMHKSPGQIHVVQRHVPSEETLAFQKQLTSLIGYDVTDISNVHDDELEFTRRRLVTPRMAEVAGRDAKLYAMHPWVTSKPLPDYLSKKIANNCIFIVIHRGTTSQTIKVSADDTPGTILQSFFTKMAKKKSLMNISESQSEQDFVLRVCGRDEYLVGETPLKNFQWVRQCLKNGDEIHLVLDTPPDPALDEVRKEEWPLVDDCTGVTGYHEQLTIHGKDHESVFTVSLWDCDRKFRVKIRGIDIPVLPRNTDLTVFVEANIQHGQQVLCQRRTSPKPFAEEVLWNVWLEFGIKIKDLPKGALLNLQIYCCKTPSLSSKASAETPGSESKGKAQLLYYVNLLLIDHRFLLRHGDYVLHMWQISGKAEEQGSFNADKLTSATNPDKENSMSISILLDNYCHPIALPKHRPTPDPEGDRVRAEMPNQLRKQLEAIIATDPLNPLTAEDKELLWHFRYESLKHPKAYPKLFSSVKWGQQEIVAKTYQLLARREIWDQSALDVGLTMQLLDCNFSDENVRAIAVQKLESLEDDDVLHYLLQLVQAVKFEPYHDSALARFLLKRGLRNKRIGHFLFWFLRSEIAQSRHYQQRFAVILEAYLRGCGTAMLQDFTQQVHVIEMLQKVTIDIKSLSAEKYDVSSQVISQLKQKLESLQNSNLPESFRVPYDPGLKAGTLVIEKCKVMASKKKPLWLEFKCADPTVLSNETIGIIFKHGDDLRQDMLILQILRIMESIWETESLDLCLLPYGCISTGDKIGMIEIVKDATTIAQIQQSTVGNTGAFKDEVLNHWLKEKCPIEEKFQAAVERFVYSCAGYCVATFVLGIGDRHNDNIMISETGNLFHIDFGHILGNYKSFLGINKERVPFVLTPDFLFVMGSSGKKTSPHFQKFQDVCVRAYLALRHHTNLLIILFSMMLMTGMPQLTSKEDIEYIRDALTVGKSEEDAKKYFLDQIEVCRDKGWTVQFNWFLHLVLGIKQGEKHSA
PI3K β, sequence (P42338 whole entry): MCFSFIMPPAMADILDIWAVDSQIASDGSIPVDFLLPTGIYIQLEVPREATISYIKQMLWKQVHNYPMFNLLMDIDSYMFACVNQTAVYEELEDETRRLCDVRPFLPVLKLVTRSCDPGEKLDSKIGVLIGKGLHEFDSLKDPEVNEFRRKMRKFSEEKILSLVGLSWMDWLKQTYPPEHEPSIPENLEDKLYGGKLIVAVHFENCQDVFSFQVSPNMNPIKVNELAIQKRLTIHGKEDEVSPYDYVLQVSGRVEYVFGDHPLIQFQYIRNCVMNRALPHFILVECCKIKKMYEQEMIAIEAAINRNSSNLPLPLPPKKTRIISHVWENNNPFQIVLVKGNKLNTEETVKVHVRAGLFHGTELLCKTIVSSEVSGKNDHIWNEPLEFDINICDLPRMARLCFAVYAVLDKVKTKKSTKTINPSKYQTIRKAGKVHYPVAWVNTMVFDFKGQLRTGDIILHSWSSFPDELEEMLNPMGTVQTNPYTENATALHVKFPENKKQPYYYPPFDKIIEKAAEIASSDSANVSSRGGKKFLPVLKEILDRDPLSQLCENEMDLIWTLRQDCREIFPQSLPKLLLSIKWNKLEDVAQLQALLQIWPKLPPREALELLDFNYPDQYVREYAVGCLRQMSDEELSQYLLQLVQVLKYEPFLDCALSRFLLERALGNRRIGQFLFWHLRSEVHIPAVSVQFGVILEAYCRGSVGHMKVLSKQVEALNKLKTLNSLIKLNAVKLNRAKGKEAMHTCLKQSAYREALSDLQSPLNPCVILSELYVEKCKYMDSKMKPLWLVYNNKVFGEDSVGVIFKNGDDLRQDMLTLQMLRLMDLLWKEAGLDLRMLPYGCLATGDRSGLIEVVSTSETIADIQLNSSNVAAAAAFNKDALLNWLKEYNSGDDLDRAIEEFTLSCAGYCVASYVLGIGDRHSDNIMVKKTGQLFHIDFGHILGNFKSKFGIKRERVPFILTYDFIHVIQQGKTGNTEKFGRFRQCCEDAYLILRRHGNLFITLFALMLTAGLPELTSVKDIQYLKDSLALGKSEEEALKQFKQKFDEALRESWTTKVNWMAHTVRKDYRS
PI3K β, sequence (P27986 whole entry partner): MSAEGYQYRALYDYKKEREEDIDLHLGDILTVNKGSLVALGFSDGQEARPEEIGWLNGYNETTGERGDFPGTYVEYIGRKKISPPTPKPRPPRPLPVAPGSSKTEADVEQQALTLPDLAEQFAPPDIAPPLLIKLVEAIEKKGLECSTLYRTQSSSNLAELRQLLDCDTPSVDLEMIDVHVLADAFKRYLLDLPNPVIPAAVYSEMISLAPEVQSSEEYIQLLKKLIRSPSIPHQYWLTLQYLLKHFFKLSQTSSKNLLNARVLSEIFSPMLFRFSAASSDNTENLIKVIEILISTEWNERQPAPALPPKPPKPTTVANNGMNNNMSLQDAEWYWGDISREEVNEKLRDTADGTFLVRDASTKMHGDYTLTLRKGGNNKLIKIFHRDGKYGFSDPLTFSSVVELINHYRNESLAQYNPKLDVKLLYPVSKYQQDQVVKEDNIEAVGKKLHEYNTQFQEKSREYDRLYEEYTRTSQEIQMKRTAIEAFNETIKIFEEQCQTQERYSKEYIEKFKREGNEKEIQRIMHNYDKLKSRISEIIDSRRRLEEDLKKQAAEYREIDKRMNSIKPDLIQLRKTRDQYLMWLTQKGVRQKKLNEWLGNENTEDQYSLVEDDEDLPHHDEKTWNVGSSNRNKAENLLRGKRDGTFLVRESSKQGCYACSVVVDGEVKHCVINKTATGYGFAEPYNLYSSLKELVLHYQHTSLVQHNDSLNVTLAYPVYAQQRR
PI3K-δ in RAJI cells, sequence (O00329 whole entry): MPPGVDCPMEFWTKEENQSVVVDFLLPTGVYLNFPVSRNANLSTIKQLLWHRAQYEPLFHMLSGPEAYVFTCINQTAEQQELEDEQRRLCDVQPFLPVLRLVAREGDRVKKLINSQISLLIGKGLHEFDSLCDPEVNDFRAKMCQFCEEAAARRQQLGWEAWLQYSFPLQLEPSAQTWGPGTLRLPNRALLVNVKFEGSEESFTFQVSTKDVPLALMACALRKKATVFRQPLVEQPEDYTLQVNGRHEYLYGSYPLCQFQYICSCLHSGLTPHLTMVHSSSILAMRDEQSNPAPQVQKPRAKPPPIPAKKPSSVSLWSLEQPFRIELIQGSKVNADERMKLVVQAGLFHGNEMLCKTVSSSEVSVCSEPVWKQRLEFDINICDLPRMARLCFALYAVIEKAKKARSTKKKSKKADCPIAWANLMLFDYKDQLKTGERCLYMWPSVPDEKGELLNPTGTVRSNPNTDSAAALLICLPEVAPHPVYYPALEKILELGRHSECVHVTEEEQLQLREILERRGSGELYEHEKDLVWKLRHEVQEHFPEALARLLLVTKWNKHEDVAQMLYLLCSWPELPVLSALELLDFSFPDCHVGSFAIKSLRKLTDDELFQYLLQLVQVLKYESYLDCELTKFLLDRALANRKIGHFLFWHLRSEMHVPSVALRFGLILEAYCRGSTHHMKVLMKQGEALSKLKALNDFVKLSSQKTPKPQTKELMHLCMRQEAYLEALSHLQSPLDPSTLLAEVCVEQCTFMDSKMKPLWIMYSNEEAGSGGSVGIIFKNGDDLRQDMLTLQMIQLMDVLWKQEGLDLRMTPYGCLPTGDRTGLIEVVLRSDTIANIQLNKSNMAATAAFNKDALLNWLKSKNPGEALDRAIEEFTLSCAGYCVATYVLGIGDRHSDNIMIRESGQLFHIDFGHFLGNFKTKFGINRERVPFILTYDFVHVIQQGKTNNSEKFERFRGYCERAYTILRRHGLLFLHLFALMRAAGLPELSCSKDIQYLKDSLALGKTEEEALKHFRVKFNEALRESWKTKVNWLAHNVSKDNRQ
PI3K-δ in RAJI cells, sequence (P27986 whole entry partner): as the sequence (P27986 whole entry partner) above

For `C[C@H](NC(=O)c1c(N)nn2cccnc12)c1nc2cccc(C#CC(C)(C)C)c2c(=O)n1-c1ccccc1` [Compound 3], the IC50 (PI3K-δ in RAJI cells) was 1 to 10 µM, the “RAJI δ/Raw264.7 γ IC50 (selectivity)” value [1] was “X (key: V = 0.1 to 1; W = > 1 to <10; X = 10 to <50; Y = 50 to <850)” and the IC50 ([1]; phospho-AKT) was 0.05 to 0.1 µM. For the same compound, the IC50 (PI3K γ) was 1 to 5 µM, the “PI3K δ/PI3K γ IC50 (selectivity)” value (PI3K γ; ratio of biochemical IC50s) was “W (W = > 1 to <10)” and the IC50 (PI3K δ) was 5 to 10 µM. It also gave an IC50 (PI3K α) of 5 to 10 µM and an IC50 (PI3K β) of 5 to 10 µM.

For `C[C@H](NC(=O)c1c(N)nn2cccnc12)c1cc2cccc(C#CC3CC3)c2c(=O)n1-c1ccccc1` [Compound 9], the “RAJI δ/Raw264.7 γ IC50 (selectivity)” value [1] was “Y (key: V = 0.1 to 1; W = > 1 to <10; X = 10 to <50; Y = 50 to <850)” and the “PI3K δ/PI3K γ IC50 (selectivity)” value (PI3K γ) was “X (key: V = 0.1 to 1; W = > 1 to <10; X = 10 to <50; Y = 50 to <850)”.

For `Cc1cnc(C(=O)N[C@@H](C)c2cc3cccc(C#Cc4cnn(C)c4)c3c(=O)n2-c2ccccc2)c(N)n1` [Compound 68], the “RAJI δ/Raw264.7 γ IC50 (selectivity)” value ([1]; ratio of cellular IC50s) was “W (W = > 1 to <10)” and the “PI3K δ/PI3K γ IC50 (selectivity)” value (PI3K γ; ratio of biochemical IC50s) was “W (W = > 1 to <10)”.

For `C/C=C/c1cccc2cc([C@H](C)NC(=O)c3c(N)nn4cccnc34)n(-c3ccccc3)c(=O)c12` [Compound 70], the “RAJI δ/Raw264.7 γ IC50 (selectivity)” value [1] was “X (key: V = 0.1 to 1; W = > 1 to <10; X = 10 to <50; Y = 50 to <850)” and the “PI3K δ/PI3K γ IC50 (selectivity)” value (PI3K γ) was “X (key: V = 0.1 to 1; W = > 1 to <10; X = 10 to <50; Y = 50 to <850)”.

In the case of `Cc1c(C#Cc2cccc3nc([C@H](C)NC(=O)c4c(N)nn5cccnc45)n(-c4ccccc4)c(=O)c23)cnn1C` [Compound 88, (S)-2-amino-N-(1-(5-((1,5-dimethyl-1H-pyrazol-4-yl)ethynyl)-4-oxo-3-phenyl-3,4-dihydroquinazolin-2-yl)ethyl)pyrazolo[1,5-a]pyrimidine-3-carboxamide], the Stability in serum [2] is reported as “good stability in serum”.

With `CC(C)n1c([C@H](C)Nc2ncnc(N)c2C#N)cc2cccc(-c3ccc(=O)n(C)c3)c2c1=O` [Compound AA] the “effect on IFN-γ” value (human T cells) was “highly selective inhibitor”, the “Inhibition of CXCL12-induced p-AKT” value [3] was “did not significantly inhibit” and the “Inhibition of CXCL12-induced p-AKT” value [4] was “did not significantly inhibit”. The “Free Plasma Conc (nM) […]” value ([5]; approximately 4 hours post LPS challenge) was “BLQ”, the “Free Plasma Conc (nM) 1.5 h” value ([5]; at time of LPS challenge) was “BLQ” and the “Neutrophil in bronchoalveolar lavage fluid (BALF)” value [6] was “reduced neutrophil”.

For `O=P1(N(CCCl)CCCl)NCCCO1` (stereo not shown) [cyclophosphamide, reference compound], the “Tumor growth, LLC tumor brei model” value (LLC tumor) was “reduced tumor growth by about the same amount”.
